# Test results from US20100190856A1, “Novel Polyhydroxylated Compounds as Fatty Acid Synthase (FASN) Inhibitors” (UNIVERSIDAD COMPLUTENSE DE MADRID, priority 2007, published 2010).
# Columns and labels:
# [1] = tested on: Non-malignant fibroblasts N-1; test: MTT cytotoxicity assay, non-malignant fibroblasts N-1; type: cell-based; conditions: for IC50: Fibroblast, non-malignant fibroblasts, MTT, 48 h, read-out: IC50, growth inhibition, Fibroblasts; for effect on non-malignant cells / normal fibroblasts: at concentrations similar to IC50; for effects in cell death / morphology changes in non-malignant cells: up to doses three-fold their cytotoxic IC50 value in tumoral cells
# Method: MCF-7 and MDA-MB-231 breast cancer cells were obtained from the American Type Culture Collection (ATCC) and were routinely grown in Dulbecco's modified Eagle's medium (DMEM, Gibco) containing 10% fetal bovine serum (FBS, Bio-Whittaker), 1% L-glutamine, 1% sodium pyruvate, 50 U/mL penicillin and 50 μg/mL streptomycin. SK-Br3 breast cancer cells were obtained from Eucellbank (Universidad de Barcelona, Spain) and were passaged in McCoy's 5 A medium containing 10% FBS, 1% L-glutamine, 1% sodium pyruvate, 50 U/mL penicillin and 50 μg/mL streptomycin. Non-malignant fibroblasts N-1 were obtained from Eucellbank (Universidad de Barcelona, Spain) and were passaged in DMEM medium containing 10% FBS, 1% L-glutamine, 1% sodium pyruvate, 50 U/mL penicillin and 50 μg/mL streptomycin. The cells remained free of Mycoplasma and were propagated in adherent culture according to established protocols. Cells were maintained at 37° C. in a humidified atmosphere of 95% air and 5% CO2.
# Drug sensitivity was determined using a standard colorimetric MTT (3-4,5-dimethylthiazol-2-yl-2,5-diphenyltetrazolium bromide) assay. Briefly, cells were plated out at a density of 7×10^3 cells/100 μL/well in 96-well microtitre plates and allowed an overnight period for attachment. Then the medium was removed and fresh medium along with various concentrations of the tested compound were added to the cultures for a period of 48 h. Following the treatment, the cells were fed with drug-free medium (100 μL/well) and 10 μL of MTT solution (5 mg/mL; Sigma, St. Louis, Mo.), and the incubation was prolonged for 3 h at 37° C. After carefully removing the supernatants, the MTT-formazan crystals formed by metabolically viable cells were dissolved in dimethyl sulphoxide (100 μL/well) and the absorbance was measured at 570 nm in a multi-well plate reader (Model Anthos Labtec 2010 1.7 reader).
# PARP = test: Immunoblot analysis of PARP cleavage in SK-Br3 cells; type: cell-based, human; conditions: for 89 KDa product of PARP cleavage: SK-Br3 cells, 30 μM, 12, 24 and 48 h
# Method: (§1) Following the treatment of SK-Br3 cells with the studied compound at the desired concentrations and time intervals, cells were harvested by treatment with trypsin-EDTA solution, washed twice with PBS and stored at −80° C. The cells were lysed in lysis buffer (1 mM EDTA, 150 mM NaCl, 100 μg/mL PMSF and 50 mM Tris-HCl, pH 7.5) and kept at 4° C. while they were routinely mixed every 2 min on the vortex during 30 min. A sample was taken for measurement of protein content by a BioRad assay (Bio-Rad Laboratories). Equal amounts of protein were heated in sodium dodecyl sulphate (SDS) sample buffer (Laemmli) for 5 min at 95° C., separated on a 3-8% SDS-polyacrylamide gel (FASN, p185^HER2/neu, phospho-p185^HER2/neu) or 4-12% SDS-polyacrylamide gel (AKT, phospho-AKT, ERK1/2, phospho-ERK1/2 and PARP) and transferred onto nitrocellulose membranes. The membranes were incubated for 1 h at room temperature in blocking buffer (2.5% powdered-skim milk in TBS-T [10 mM Tris-HCl pH 8.0, 150 mM NaCl and 0.05% Tween-20]) to prevent non-specific antibody binding. The primary antibody used was a monoclonal antibody. Antibody dilution was prepared in blocking solution and blots were incubated with monoclonal antibody overnight at 4° C. […] Blots were re-probed with an antibody for β-actin to control for protein loading and transfer.
# Western blot analysis for poly-ADP-ribose polymerase (PARP) was performed on SK-Br3 cells exposed for 12, 24 and 48 h to compound f (30 μM) and compound i (30 μM). Apoptosis and induction of caspase activity was confirmed by Western blotting analysis showing cleavage of PARP.
# HER2 = test: Immunoblot analysis of p185HER2/neu and phospho-p185HER2/neu in SK-Br3 cells; type: cell-based, human; conditions: for level of total HER2 / expression levels of p-HER2 proteins / levels of p-HER2 proteins: SK-Br3, 30 μM; for level of total HER2: Western blotting or HER2-specific ELISA; for expression levels of p-HER2 proteins: within 2 h after exposure; for levels of p-HER2 proteins: within 6 h after treatment; for active form of oncoprotein HER2: within 2 h after treatment
# Method: as §1
# We have examined the time-dependent effects of compound f (30 μM) and compound i (30 μM) on HER2, AKT and ERK1/2 activation.
Compound,IC50 [1],effect on non-malignant cells / normal fibroblasts [1],effects in cell death / morphology changes in non-malignant cells [1],induction of apoptosis (cleavage of PARP) (PARP),89 KDa product of PARP cleavage (PARP),level of total HER2 (HER2),expression levels of p-HER2 proteins (HER2),levels of p-HER2 proteins (HER2),active form of oncoprotein HER2 (HER2)
"O=C(Oc1cc(OC(=O)c2cc(O)c(O)c(O)c2)c2ccccc2c1)c1cc(O)c(O)c(O)c1 [f, 1,3-bis[(3,4,5-trihydroxybenzoyl)oxy]naphthalene]",> 150 µM,not affected,No significant effects,induced apoptosis,marked increase,no significant change,markedly decreased,total decrease,marked decrease
"O=C(Oc1ccc(OC(=O)c2cc(O)c(O)c(O)c2)c2ccccc12)c1cc(O)c(O)c(O)c1 [i, 1,4-bis[(3,4,5-trihydroxybenzoyl)oxy]naphthalene]",> 150 µM,not affected,No significant effects,induced apoptosis,marked increase,no significant change,markedly decreased,total decrease,marked decrease
